{"source": "paper PMC9823356", "about": "“Inhibition of Cancer Cell Proliferation and Bacterial Growth by Silver(I) Complexes Bearing a CH3-Substituted Thiadiazole-Based Thioamide” (Molecules, 2023)", "key": {"[1]": {"tested_on": "DMS114 small cell lung cancer cells", "assay": "MTT cytostatic/cytotoxic assay", "format": "cell-based, human", "conditions": "DMS114, 48 h treatment", "method": "(§1) The cell lines were obtained from the American Type of Culture collection (ATCC), except HuP-T3 which was kindly donated from University of Crete, School of Medicine, Greece, and were grown in different culture medium according to the instructions.\n(§2) For the determination of the cell viability, it was employed the MTT assay. Cells were plated in 96-well plate at a density of 1 × 10^4 cells/mL per well and maintained for 72 h at 37 °C in a 5% CO2 incubator and grown as monolayers. […] The viability of cultured cells was estimated by a (3-(4,5-imethylthiazol-2-yl)-2,5-diphenyltetrazolium bromide (MTT) metabolic assay as previously described.\n(§3) In brief, MTT (Sigma, St Louis, Missouri, USA) was dissolved in PBS in a concentration of 5 mg/mL, filter sterilized, and stored at 4 °C. Then, 50 μL of stock solution was added to each culture and incubated for 3 h at 37 °C. Formazan crystals were solubilized by DMSO (100 μL). Absorbance of the converted dye was measured at a wavelength of 540 nm on ELISA reader (VersaMax Microplate Reader Orleans, USA). […] […] The percentage growth inhibition was calculated according to National Cancer Institute (NCI) as: {[(Tt72x) − (Ct24)]/[(Ct72) − (Ct24)]} × 100 for concentrations for which Tt72x>Ct24 and {(Tt72x) − (Ct24)]/(Ct24)} × 100 for concentrations for which Tt72x<Ct24. […] All experiments were carried out in triplicate. A significant difference was presumed to exist when p ≤ 0.05 (two tailed paired t test)."}, "[2]": {"tested_on": "SKOV-3 ovarian cancer cells", "assay": "MTT cytostatic/cytotoxic assay", "format": "cell-based, human", "conditions": "SKOV-3, 48 h treatment", "method": "as §1, §2, §3"}, "[3]": {"tested_on": "MRC5 human normal lung cells", "assay": "MTT cytostatic/cytotoxic assay", "format": "cell-based", "conditions": "MRC5, 48 h treatment", "method": "as §1, §2\n(§4) In brief, MTT (Sigma, St Louis, Missouri, USA) was dissolved in PBS in a concentration of 5 mg/mL, filter sterilized, and stored at 4 °C. Then, 50 μL of stock solution was added to each culture and incubated for 3 h at 37 °C. Formazan crystals were solubilized by DMSO (100 μL). Absorbance of the converted dye was measured at a wavelength of 540 nm on ELISA reader (VersaMax Microplate Reader Orleans, USA). […] Using seven absorbance measurements [time 24 h (Ct24), control growth 72 h (Ct72), and test growth in the presence of drug at five concentration levels (Tt72x)], the percentage of growth was calculated at each level of the drug concentrations. The percentage growth inhibition was calculated according to National Cancer Institute (NCI) as: {[(Tt72x) − (Ct24)]/[(Ct72) − (Ct24)]} × 100 for concentrations for which Tt72x>Ct24 and {(Tt72x) − (Ct24)]/(Ct24)} × 100 for concentrations for which Tt72x<Ct24. […] All experiments were carried out in triplicate. A significant difference was presumed to exist when p ≤ 0.05 (two tailed paired t test)."}, "[4]": {"tested_on": "Hup-T3 pancreatic adenocarcinoma cells", "assay": "MTT cytostatic/cytotoxic assay", "format": "cell-based, human", "conditions": "Hup-T3, 48 h treatment", "method": "as §1, §2, §4"}, "[5]": {"tested_on": "PC3 prostate adenocarcinoma cells", "assay": "MTT cytostatic/cytotoxic assay", "format": "cell-based, human", "conditions": "PC3, 48 h treatment", "method": "as §1, §2, §4"}, "[6]": {"assay": "Reduction of hydrogen peroxide", "conditions": "compound 0.1 mM, 20 min, phosphate buffer pH 7.4", "method": "In vitro antioxidant activity studies for 1–4 and their free ligands were performed in order to determine their ability to scavenge DPPH, and ABTS free radicals and to reduce H2O2 and was compared with the antioxidant capacity of reference compounds (NDGA, BHT, trolox and ascorbic acid).\nThe absorbance was measured at 230 nm after 20 min. The antioxidant activity of the compounds was expressed as percent reduction of H2O2 (%H2O2). Ascorbic acid (or vitamin C) was used as an appropriate standard."}, "[7]": {"tested_on": "Bacillus cereus (B. cereus)", "assay": "In vitro antibacterial activity, progressive double dilutions, culture turbidity", "format": "cell-based", "source_text": "(§5) The growth of bacteria was estimated by measuring the turbidity of the culture, as previously reported. […] The pH of the media was adjusted to 7.0."}, "[8]": {"tested_on": "Bacillus subtilis (B. subtilis)", "assay": "In vitro antibacterial activity, progressive double dilutions, culture turbidity", "format": "cell-based", "source_text": "as §5"}, "[9]": {"tested_on": "Escherichia coli (E. coli)", "assay": "In vitro antibacterial activity, progressive double dilutions, culture turbidity", "format": "cell-based", "source_text": "as §5"}, "[10]": {"tested_on": "Staphylococcus aureus (S. aureus)", "assay": "In vitro antibacterial activity, progressive double dilutions, culture turbidity", "format": "cell-based", "source_text": "as §5"}, "[11]": {"target": "T1, BSA (bovine serum albumin) (Bos taurus, UniProt P02769)", "T1 construct": "purchased", "T1 sequence (P02769 25-607)": "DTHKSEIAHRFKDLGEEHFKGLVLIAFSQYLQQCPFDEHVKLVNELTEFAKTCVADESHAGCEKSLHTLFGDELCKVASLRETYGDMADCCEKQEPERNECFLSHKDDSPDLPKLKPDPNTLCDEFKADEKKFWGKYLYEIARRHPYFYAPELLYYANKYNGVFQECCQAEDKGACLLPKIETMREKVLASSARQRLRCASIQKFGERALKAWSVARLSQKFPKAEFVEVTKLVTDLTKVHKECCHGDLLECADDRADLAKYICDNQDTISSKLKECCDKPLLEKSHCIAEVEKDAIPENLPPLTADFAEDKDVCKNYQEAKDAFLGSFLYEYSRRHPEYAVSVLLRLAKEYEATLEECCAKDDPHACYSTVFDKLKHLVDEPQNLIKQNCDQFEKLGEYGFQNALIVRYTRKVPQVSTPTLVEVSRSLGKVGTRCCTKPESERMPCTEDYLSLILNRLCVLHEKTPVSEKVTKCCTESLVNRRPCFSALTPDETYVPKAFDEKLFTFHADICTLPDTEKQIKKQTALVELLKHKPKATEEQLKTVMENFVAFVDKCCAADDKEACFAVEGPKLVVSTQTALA", "assay": "Serum albumin tryptophan fluorescence quenching", "format": "binding", "method": "The serum albumin (SA) binding study was performed by tryptophan fluorescence quenching experiments using BSA (3 μM) or HSA (3 μM) in buffer (containing 1 mM trisodium citrate and 150 mM NaCl at pH 7.0).\nThe Stern-Volmer and Scatchard graphs are used in order to study the interaction of a quencher with serum albumins. According to Stern-Volmer quenching equation (Equation (2)), where Io = the initial tryptophan fluorescence intensity of SA, I = the tryptophan fluorescence intensity of SA after the addition of the quencher, kq = the quenching constant, KSV = the Stern-Volmer constant, τo = the average lifetime of SA without the quencher, [Q] = the concentration of the quencher. KSV (M^–1) can be obtained by the slope of the diagram Io/I versus [Q], and subsequently the quenching constant (kq, M^–1s^–1) is calculated from Equation (3) with τ0 = 10^–8 s as fluorescence lifetime of tryptophan in SA.\nFrom the Scatchard equation (5) ΔΙ/Ιο/Q=nK−kΔΙ/Ιο where, n is the number of binding sites per albumin and K is the SA-binding constant, K (in M^–1) is calculated from the slope in plots ΔΙ/Ιο/Q versus ΔΙ/Ιο and n is given by the ratio of y intercept to the slope."}, "[12]": {"conditions": "cytocidal/cytotoxic, read-out: IC50 (the source's name)"}, "[13]": {"conditions": "value in parentheses, mean ± SD, read-out: IC50"}}, "note": "Like-named read-outs stand apart in the source and are kept apart here."}
{"substance": "[Ag(mtdztH)(dppe)(NO3)]n [Compound 4]", "values": [{"measurement": "LC50", "setting": "[1]; [12]", "result": "3.1 ± 0.05", "unit": "µM"}, {"measurement": "GI50", "setting": "[1]; growth inhibition", "result": "0.5 ± 0.04", "unit": "µM"}, {"measurement": "TGI", "setting": "[1]; total growth inhibition", "result": "1.0±0.05", "unit": "μΜ"}, {"measurement": "LC50", "setting": "[2]; [12]", "result": "2.3 ± 0.05", "unit": "µM"}, {"measurement": "GI50", "setting": "[2]; growth inhibition", "result": "1 ± 0.02", "unit": "µM"}, {"measurement": "TGI", "setting": "[2]; total growth inhibition", "result": "2.0±0.03", "unit": "μΜ"}, {"measurement": "IC50", "setting": "[3]; cytocidal/cytotoxic", "result": "4.4 ± 0.08", "unit": "µM"}, {"measurement": "GI50", "setting": "[3]; growth inhibition", "result": "1.2 ± 0.05", "unit": "µM"}, {"measurement": "TGI", "setting": "[3]; total growth inhibition", "result": "2.8±0.05", "unit": "μΜ"}, {"measurement": "IC50", "setting": "[4]; cytocidal/cytotoxic", "result": "3 ± 0.04", "unit": "µM"}, {"measurement": "GI50", "setting": "[4]; growth inhibition", "result": "0.4 ± 0.02", "unit": "µM"}, {"measurement": "TGI", "setting": "[4]; total growth inhibition", "result": "0.9±0.04", "unit": "μΜ"}, {"measurement": "LC50", "setting": "[5]; [12]", "result": "3.6 ± 0.05", "unit": "µM"}, {"measurement": "GI50", "setting": "[5]; growth inhibition", "result": "0.6 ± 0.03", "unit": "µM"}, {"measurement": "TGI", "setting": "[5]; total growth inhibition", "result": "1.6±0.03", "unit": "μΜ"}, {"measurement": "H2O2 reducing ability (%H2O2)", "setting": "[6]", "result": "35.17±1.96", "unit": "%"}, {"measurement": "IC50", "setting": "[7]", "result": 5, "unit": "µg/mL"}, {"measurement": "MIC", "setting": "[7]", "result": 50, "unit": "µg/mL"}, {"measurement": "MIC", "setting": "[7]; value in parentheses", "result": 45, "unit": "μΜ"}, {"measurement": "IC50", "setting": "[7]; [13]", "result": "4.6 ± 0.7", "unit": "µM"}, {"measurement": "IC50", "setting": "[8]", "result": 4.9, "unit": "µg/mL"}, {"measurement": "MIC", "setting": "[8]", "result": 30, "unit": "µg/mL"}, {"measurement": "MIC", "setting": "[8]; value in parentheses", "result": 27, "unit": "μΜ"}, {"measurement": "IC50", "setting": "[8]; [13]", "result": "4.5 ± 0.8", "unit": "µM"}, {"measurement": "IC50", "setting": "[9]", "result": 11, "unit": "µg/mL"}, {"measurement": "MIC", "setting": "[9]; ampicillin reference against E.coli (BL21)", "result": "higher than 100 μg/mL"}, {"measurement": "MIC", "setting": "[9]; value in parentheses", "result": 91, "unit": "μΜ"}, {"measurement": "IC50", "setting": "[9]; [13]", "result": "15.4 ± 2.4", "unit": "µM"}, {"measurement": "IC50", "setting": "[10]", "result": 8, "unit": "µg/mL"}, {"measurement": "MIC", "setting": "[10]", "result": 50, "unit": "µg/mL"}, {"measurement": "MIC", "setting": "[10]; value in parentheses", "result": 45, "unit": "μΜ"}, {"measurement": "IC50", "setting": "[10]; [13]", "result": "7.3 ± 1.6", "unit": "µM"}, {"measurement": "decrease in BSA fluorescence", "setting": "[11]; λex 295 nm, λem 350 nm", "result": 44.5, "unit": "%"}, {"measurement": "emission-quenching constant kq", "setting": "[11]; τ0 = 10^–8 s", "result": "7.15 (±0.40) × 10^12 M^−1s^−1"}]}
